Literature values in patent publication US5047532A, “Isolation and elucidation of Cephalostatins 5 and 6” (Arizona Board of Regents, acting on behalf of Arizona State …, priority 1989, dated 1991).

Tested on: murine P388 lymphocytic leukemia (PS cell line)
Details: Pettit et al, J. Chem. Soc. Chem. Commun. 85 (1988)

C[C@@H]1[C@]2(O[C@H]3C=C4[C@@H]5CC[C@H]6Cc7nc8c(nc7C[C@]6(C)[C@H]5C[C@@H](O)[C@]4(C)[C@]31O)C[C@@H]1CC[C@H]3C4=CC[C@@H]5[C@H](C)[C@@]6(OC[C@]45C(=O)C[C@@H]3[C@@]1(C)C8)OC(C)(C)C[C@H]6O)O[C@](C)(CO)C[C@H]2O [Cephalostatin 1]
murine P388 lymphocytic leukemia (PS system) cell growth inhibition: cell growth inhibitor
